Measured values taken from patent US8481734B2, “Pyrazine derivatives and uses thereof, including in medical imaging and visualization applications” (Medibeacon Development LLC, priority 2008, dated 2013).

How the values were obtained:
[1] = Excitation and emission wavelengths; type: physicochemical
Excerpt: Compound 18, above, is a longer wavelength compound (excitation ˜500 nm, emission 600 nm orange). To achieve the red shift in both excitation and emission wavelengths, electron donation into the ring was increased by alkyl substitution on the pyrazine ring nitrogens. The synthetic strategy for these longer wavelength analogues involves functionalizing the carboxyls first through amide chemistry described above followed by reductive amination of the pyrazine amino groups. Thus the synthesis of compound 18, above, is presented below. MP-3064 was coupled with Boc-ethylenediamine using the EDC method to afford MP-3183. This material was then converted to MP-3216 by reductive amination using Boc-2-aminoacetaldehyde and sodium triacetoxyborohydride. MP-3216 was purified by flash chromatography and deprotected with TFA to afford the corresponding tetramine salt. This material was then acylated with NHS-m-dPEG12 and purified by HPLC to afford compound 18: […]

[2] = Comparison of clearance rates with an iothalamate reference standard (FIG. 3); type: in vivo, Spraque-Dawley rats; settings: Sprague-Dawley rats; iothalamate five rats, compound 18 six rats; FIG. 3 in milliliters per minute
Description: FIG. 3 provides a bar graph comparison of the clearance rates of an iothalamate reference standard and compound 18. Spraque-Dawley rats were again used as animal models for studying the clearance rates. Iothalamate clearance rates were measured in five rats, whereas clearance rates for compound 18 were measured in six rats. The clearance rates are expressed in FIG. 3 in terms of milliliters per minute.

[3] = Clearance curve of compound 18 in rats, monitored by fluorescence (RFUs) over time (FIG. 2); type: in vivo; settings: Sprague-Dawley rats, i.v. 1 ml of 2 mmol solution in PBS, approx. 6 μmol/kg, four rats, fluorescence (RFU)
Description: Four Sprague-Dawley rats were used to obtain the experimental results depicted in FIG. 2, with each of the four lines of the graph representing data obtained from an individual rat. The rats were injected intravenously with 1 ml of a 2 mmol solution of compound 18 in phosphate-buffered saline CBS), giving a final concentration of compound 18 in each animal of approximately 6 μmol/kg. The presence of compound 18 in each of the animals was monitored over time and measured in Relative Fluorescence Units (RFUs). The clearance curve in FIG. 2 provides RFUs over time for each of the four rats. […] The clearance rate then began to level, with complete clearance of compound 18 occurring at approximately 6000 minutes.

Row | SMILES | excitation wavelength [1] [nm] | emission wavelength ([1]; orange) [nm] | clearance rate, compound 18 compared with iothalamate [2] | time of complete clearance [3]
1 | COCCOCCOCCOCCOCCOCCOCCOCCOCCOCCOCCOCCC(=O)NCCNC(=O)c1nc(NCCNC(=O)CCOCCOCCOCCOCCOCCOCCOCCOCCOCCOCCOCCOC)c(C(=O)NCCNC(=O)CCOCCOCCOCCOCCOCCOCCOCCOCCOCCOCCOCCOC)nc1NCCNC(=O)CCOCCOCCOCCOCCOCCOCCOCCOCCOCCOCCOCCOC [compound 18, 3,6-Bis(38-oxo-2,5,8,11,14,17,20,23,26,29,32,35-dodecaoxa-39-azahentetracontan-41-ylamino)-N^2,N^5-bis(38-oxo-2,5,8,11,14,17,20,23,26,29,32,35-dodecaoxa-39-azahentetracontan-41-yl)pyrazine-2,5-dicarboxamide] | ~500 | 600 | virtually the same | approximately 6000 minutes
2 | CNC(=O)c1c(I)c(NC(C)=O)c(I)c(C(=O)O)c1I [iothalamate, reference compound] | – | – | virtually the same | –
